Source: patent US20060100280A1, “Cell growth regulator” (Chugai Seiyaku Kabushiki Kaisha, priority 2002, published 2006)

Legend:
ATB^0,+ = target: T1, ATB^0,+ (Canis lupus familiaris, UniProt A0A8I3P2T9); conditions: canine small intestinal brush border membrane; Hatanaka et al. 2002, J. Pharm. Pharmacol.; cited from earlier work
T1 construct: from tissue; host or cells: canine small intestinal brush border membrane (finding quoted from Hatanaka et al. 2002, J. Pharm. Pharmacol.)
T1 sequence (A0A8I3P2T9 1-639): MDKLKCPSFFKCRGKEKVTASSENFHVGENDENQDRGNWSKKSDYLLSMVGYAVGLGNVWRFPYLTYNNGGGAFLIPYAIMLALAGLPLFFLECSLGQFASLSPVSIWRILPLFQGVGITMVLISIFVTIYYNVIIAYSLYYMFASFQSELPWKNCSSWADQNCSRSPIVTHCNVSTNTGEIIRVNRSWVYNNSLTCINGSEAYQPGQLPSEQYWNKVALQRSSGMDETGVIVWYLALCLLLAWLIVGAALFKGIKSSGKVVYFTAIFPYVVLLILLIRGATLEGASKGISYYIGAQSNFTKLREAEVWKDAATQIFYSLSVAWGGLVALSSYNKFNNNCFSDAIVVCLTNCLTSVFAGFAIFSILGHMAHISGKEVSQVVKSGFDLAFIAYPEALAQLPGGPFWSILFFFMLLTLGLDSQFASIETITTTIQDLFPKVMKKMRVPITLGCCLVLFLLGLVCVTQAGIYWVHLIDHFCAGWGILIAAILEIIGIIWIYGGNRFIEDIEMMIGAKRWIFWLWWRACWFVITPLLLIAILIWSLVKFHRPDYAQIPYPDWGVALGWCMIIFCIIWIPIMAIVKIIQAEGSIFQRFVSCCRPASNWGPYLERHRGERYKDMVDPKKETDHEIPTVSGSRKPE

[1] = system: human colon cancer cell line SW60; assay: Cell growth test, MTS assay, SW60; format: cell-based; conditions: SW60, surviving cell count by MTS on fourth day of culturing
Protocol: (§1) Accordingly, L-2-phenylglycine is considered to be a competitive inhibitor with strong specificity to ATB^0,+ (Hatanaka et al. 2002, J. Pharm. Pharmacol.). The present inventors prepared 20 mM L-2-phenylglycine solution by dissolving L-2-phenylglycine in a medium containing 0% FBS. IMDM was used as the medium for SW60 and HT29; and RPMI was used for MCF-7. This solution was diluted with the medium to prepare L-2-phenylglycine solutions of 2, 0.2, 0.02, and 0.002 mM.
(§2) Human colon cancer cell lines SW60 and HT29, and breast cancer cell line MCF-7 were prepared with medium to form 4×10^6, 1.6×10^6, and 1.6×10^6 cells/mL, respectively. 25 μL/well of the suspensions thus obtained (1×10^5, […], respectively) were plated onto a 96-well plate, which already contained 25 μL/well of medium comprising 12% FBS. 50 μL of L-2-phenylglycine solution was then added to each well. The cells were cultured in a 5% CO2 incubator, and surviving cell count was quantified by MTS assay on the fourth day of culturing.

[2] = system: breast cancer cell line MCF-7; assay: Cell growth test, MTS assay, MCF-7; format: cell-based, human
Protocol: as §1, §2

[3] = system: human colon cancer cell line HT29; assay: Cell growth test, MTS assay, HT29; format: cell-based
Protocol: as §1, §2

N[C@H](C(=O)O)c1ccccc1 [L-2-phenylglycine]
Affinity compared with L-alanine and L-phenylalanine (ATB^0,+): stronger affinity
Cell growth suppression [1]: could not be observed
Cell growth suppression ([2]; MCF-7, in the presence of 1 mM, MTS on fourth day): approximately 10%
Cell growth suppression ([2]; MCF-7, surviving cell count by MTS on fourth day of culturing): concentration-dependent cell growth suppression was observed
Cell growth suppression ([3]; HT29, in the presence of 10 μM, reached equilibrium, MTS on fourth day): approximately 10%
Cell growth suppression ([3]; HT29, surviving cell count by MTS on fourth day of culturing): concentration-dependent cell growth suppression was observed
